From PubChem BioAssay (NCI)
“And” between values parts separate entries of the source, which are not always exact repeats. Equal entries are not always repeated.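 In this assay, cells in 96-well plates receive the compound at five concentrations for 48 hours. Endpoints are linearly interpolated between the surrounding concentrations. GI50 = concentration required for 50% inhibition of growth. At the TGI there is no net growth.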

Experiments:
Experiment in all cases: inhibition of tumour cell growth, NCI panel, 48 h
HL-60(TB) leukemia = tested on: HL-60(TB) leukemia
HS 578T breast = tested on: HS 578T breast
KM20L2 colon = tested on: KM20L2 colon
M19-MEL melanoma = tested on: M19-MEL melanoma
NCI-H23 lung = tested on: NCI-H23 lung
NCI-H460 lung = tested on: NCI-H460 lung
SF-539 CNS = tested on: SF-539 CNS
SK-MEL-2 melanoma = tested on: SK-MEL-2 melanoma
SR leukemia = tested on: SR leukemia
SW-620 colon = tested on: SW-620 colon

Row | SMILES | GI50 (HL-60(TB) leukemia) | TGI (HL-60(TB) leukemia) | GI50 (HS 578T breast) [µM] | TGI (HS 578T breast) | GI50 (KM20L2 colon) [µM] | TGI (KM20L2 colon) [µM] | GI50 (M19-MEL melanoma) [µM] | TGI (M19-MEL melanoma) [µM] | GI50 (NCI-H23 lung) | TGI (NCI-H23 lung) | GI50 (NCI-H460 lung) | TGI (NCI-H460 lung) | GI50 (SF-539 CNS) [µM] | TGI (SF-539 CNS) | GI50 (SK-MEL-2 melanoma) [µM] | TGI (SK-MEL-2 melanoma) | GI50 (SR leukemia) | TGI (SR leukemia) | GI50 (SW-620 colon) [µM] | TGI (SW-620 colon)
1 | COc1nc(N)nc2nc[nH]c12 | 715 µM and 210 µM | 500 µM and 800 µM and > 1000 µM | 603 | 500 µM and > 1000 µM | > 800 | > 800 | > 800 | > 800 | > 800 µM and 888 µM | > 1000 µM | 674 µM and 588 µM | 500 µM and 800 µM and > 1000 µM | > 800 | 500 µM and > 800 µM and > 1000 µM | > 800 | 500 µM and > 800 µM and > 853 µM | > 800 µM and 249 µM | 500 µM and > 800 µM and > 849 µM | > 1000 | > 1000 µM
2 | C=C(C)c1nc(Oc2ccccc2)nc(Oc2ccccc2)n1 | – | 4.51 µM | – | 44.1 µM | – | 26.7 | – | 7.93 | – | 21.5 µM | – | 22.8 µM | – | 14.5 µM | – | 9.51 µM | – | > 25.1 µM | – | 15.7 µM
3 | O=C1NC(=O)C2C3C=CC(C12)C1C2C(=O)NC(=O)C2C31 (stereo not given) | – | 206 µM and > 1000 µM | 419 | 250 µM and > 562 µM | – | 250 | 98.2 | 250 | 727 µM | 250 µM and > 1000 µM | 47 µM and 74.4 µM | 203 µM and > 1000 µM | 316 | 199 µM and > 1000 µM | > 719 | 244 µM and > 1000 µM | 68.9 µM and 108 µM | 250 µM and > 871 µM | – | > 67.4 µM and 203 µM and > 1000 µM
4 | CC1(C)CC(=O)C(C(=O)Nc2cccs2)=C(O)C1 | – | 57.7 µM | – | – | – | > 100 | – | > 100 | – | 95.7 µM | – | > 100 µM | – | > 100 µM | – | > 100 µM | – | > 100 µM | – | > 100 µM
5 | COc1ccc(C(C)Nc2cc(OC)c(OC)c(OC)c2)cc1 (stereo not given) | – | 5.81 µM | – | – | – | 7.3 | – | > 100 | – | > 39.6 µM | – | > 25.5 µM | – | 12.8 µM | – | 81.1 µM | – | > 100 µM | – | > 100 µM
